Measured values as given in patent US20130052162A1, “BOOSTING IMMUNE DEFENSE BY UPREGULATING CCAAT/ENHANCER BINDING PROTEIN EPSILON” (CEDARS-SINAI MEDICAL CENTER, priority 2010, published 2013).
“And” between values parts separate entries of the source, which are not always exact repeats. Equal values may be shown once. “Also recorded” adds a separate entry of the source.

Tests used:
S. aureus [1] = experiment: Murine systemic (i.p.) S. aureus infection; format: in vivo, mouse; conditions: 250 mg/kg i.p. daily from 24 h before infection, 48 h p.i.
Protocol: Following euthanization of mice on the specified day, infected skin lesion tissue was aseptically excised, and thoroughly homogenized and mixed in 1 mL of PBS as previously shown^43. Ten-fold serial dilutions of the homogenates were plated on THA for CFU determination. The spleen and both kidneys were aseptically removed from each animal and processed in the same way. When required, the appropriate homogenized suspensions (skin lesions) were centrifuged at 15,000 g for 10 min and supernatants stored at −80° C. for subsequent analysis by ELISA.
Mice were systemically infected by intraperitoneal (i.p.) injection of 1×10^7 CFU/mL S. aureus for 48 h. Following euthanasia, the spleen and both kidneys were removed for CFU determination.

[2] = human trials, patients undergoing radiotherapy; cited from earlier work
S. aureus [3] = experiment: Human peripheral whole blood killing assay, S. aureus; format: cell-based
[4] = Ex vivo hematological study (CBC) of human donor blood; format: cell-based; conditions: 1 mM NAM ex vivo
Protocol: Blood from human donors (no antibiotics within the prior 2 weeks, no immune-boosting supplements, and otherwise healthy) was collected in ETDA tubes. CBC was performed on each blood sample at time zero. Each blood sample was then treated ex vivo with NAM (1 mM) or PBS (control) for 24 h in 6-well non-treated plates at 37 C, 5% CO2 and 95%% humidity with gentle rocking. After 24 h of treatment, CBCs were performed on each blood sample. […] (Table 3)

CEBPE promoter region [5] = experiment: ChIP: histone H3 acetylation at CEBPE promoter in human PMNs from NAM-treated blood; format: cell-based; conditions: blood treated with 1 mM NAM, 12 h
Protocol: ChIP assay kit (Upstate Biotechnology, Lake Placid, N.Y.) was used, and chromatin was prepared for IP as instructed by the manufacturer. The sonicated chromatin was immunoprecipitated with either 5 μg of anti-acetylated histone H3 antibody or normal rabbit IgG antibody as negative control (Upstate Biotechnology). Immunoprecipitated DNA was subsequently analyzed by PCR using primers specific for the CEBPE promoter region; input chromatin was analyzed for β-actin mRNA as a positive control. The optimal reaction conditions for PCR were determined for each primer pair. Primers were denatured at 95° C. for 1 min and annealed at 60° C. for 1 min, followed by elongation at 72° C. for 1 min; each product was amplified 35 cycles. PCR products were analyzed by 2.5% agarose/ethidium bromide gel electrophoresis. […] The primers used for ChIP analysis were: human CEBPE 5′-GCTTTGGCCAAGCCCAGGGA-3′ (forward) (SEQ ID NO: 9), 5′-TGCTGGGCTCCACCTACCCC-3′ (reverse) (SEQ ID NO: 10); human β-actin: 5′-CTCCTCGGGAGCCACACGCA-3′ (forward) (SEQ ID NO: 1), 5′-TAGGGGAGCTGGCTGGGTGG-3′ (reverse) (SEQ ID NO: 12); murine CEBPE: 5′-TGAGGCTGCAGCTTGCCTGG-3′ (forward) (SEQ ID NO: 13), 5′-ACCAAGCTACCCCTGGCCCT-3′ (reverse) (SEQ ID NO: 14), murine β-actin: 5′-ACCTGTTACTTTGGGAGTGGCAAGC-3′ (forward) (SEQ ID NO: 15), 5′-GTCGTCCCAGTTGCTAACAATGCC-3′ (reverse) (SEQ ID NO: 16). […]

K. pneumoniae = experiment: Human peripheral whole blood killing assay, K. pneumoniae; format: cell-based; conditions: NAM-pretreated human blood, 3 h of infection
Protocol: This well described phagocytic survival assay has been previously reported^42. Bacteria was pelleted, washed twice, diluted to the specified inoculum in 25 μl PBS (without Ca^2+ and Mg^2+), and immediately mixed with 75 μl of freshly drawn human or murine peripheral whole blood in sterile heparinized 2 mL round-bottom Eppendorf tubes. When required, murine plasma was obtained by centrifugation of heparinized whole blood at 2000×g for 15 min at RT. Reactions (performed in minimum in triplicate) were incubated at 37° C. for 1-3 h on a rotary shaker, at which time ten-fold serial dilutions were plated on THA for enumeration of surviving CFU.
When required, freshly drawn human or murine peripheral blood was pretreated with NAM (˜0.1 mM or ˜10 mM) or PBS (without Ca^2+ and Mg^2+), prior to inoculation with bacteria.
Participants in the inventors' study included 15 healthy humans with a negative history of infection or antibiotic treatments in the prior 4 weeks. Peripheral blood was collected from individuals in a fasting condition. Polymorph-prep (Axis-Shield, Oslo, Norway) was used for the isolation of PMNs according to the manufacturer's protocol.

CEBPE promoter region [6] = experiment: ChIP: histone H3 acetylation at CEBPE promoter in BMMC; format: cell-based, mouse; conditions: WT BMMC, 1 mM NAM, 12 h, vs untreated
Protocol: ChIP assay kit (Upstate Biotechnology, Lake Placid, N.Y.) was used, and chromatin was prepared for IP as instructed by the manufacturer. The sonicated chromatin was immunoprecipitated with either 5 μg of anti-acetylated histone H3 antibody or normal rabbit IgG antibody as negative control (Upstate Biotechnology). Immunoprecipitated DNA was subsequently analyzed by PCR using primers specific for the CEBPE promoter region; input chromatin was analyzed for β-actin mRNA as a positive control. The optimal reaction conditions for PCR were determined for each primer pair. Primers were denatured at 95° C. for 1 min and annealed at 60° C. for 1 min, followed by elongation at 72° C. for 1 min; each product was amplified 35 cycles. PCR products were analyzed by 2.5% agarose/ethidium bromide gel electrophoresis. […] The primers used for ChIP analysis were: human CEBPE 5′-GCTTTGGCCAAGCCCAGGGA-3′ (forward) (SEQ ID NO: 9), 5′-TGCTGGGCTCCACCTACCCC-3′ (reverse) (SEQ ID NO: 10); human β-actin: 5′-CTCCTCGGGAGCCACACGCA-3′ (forward) (SEQ ID NO: 1), 5′-TAGGGGAGCTGGCTGGGTGG-3′ (reverse) (SEQ ID NO: 12); murine CEBPE: 5′-TGAGGCTGCAGCTTGCCTGG-3′ (forward) (SEQ ID NO: 13), 5′-ACCAAGCTACCCCTGGCCCT-3′ (reverse) (SEQ ID NO: 14), murine β-actin: 5′-ACCTGTTACTTTGGGAGTGGCAAGC-3′ (forward) (SEQ ID NO: 15), 5′-GTCGTCCCAGTTGCTAACAATGCC-3′ (reverse) (SEQ ID NO: 16).

S. aureus [7] = experiment: Murine peripheral whole blood killing assay; format: cell-based, mouse
[8] = t = 24 h, individual human donors #1-5

Question: For `NC(=O)c1cccnc1` [NAM, Nicotinamide], which “bacterial CFU recovered from spleens and kidneys vs PBS” value (S. aureus [1]; C/EBPε−/− mice) is on record?
Answer: The value was “no impact”.

Question: And the “lower S. aureus CFU in spleens and kidneys vs PBS” value (S. aureus [1]; WT mice)?
Answer: Its value is “approximately 2 logic”.

Question: What about the “plasma concentration routinely achieved” value [2] of the same molecule?
Answer: Its value is 1000 µM.

Question: What about the “CFU recovered, NAM- vs PBS-treated blood” value (S. aureus [3]; NAM 1 mM or 10 mM 24 h, 1 h and 3 h of infection) of the same molecule?
Answer: Its value is “Significantly less CFU”.

Question: And the “reduction of S. aureus survival in whole blood vs PBS” value (S. aureus [3]; NAM 1 mM or 10 mM 24 h pretreatment, 3 h p.i.)?
Answer: The value was 2-3 log10.

Question: And the “CBCs, NAM- vs PBS-treated and untreated blood” value ([4]; 24 h)?
Answer: Its value is “No differences in CBCs”.

Question: What about the “ABS MONOS” value [4, 8] of the same molecule?
Answer: The value was 0.6 1000/UL and 0.5 1000/UL and 0.2 1000/UL and 0.1 1000/UL (2×).

Question: What about the “ABS POLYS” value [4, 8] of the same molecule?
Answer: Its value is 5.4 1000/UL and 2.9 1000/UL and 5.2 1000/UL and 4.2 1000/UL and 4.3 1000/UL.

Question: What about the MONOS [4, 8] of the same molecule?
Answer: The MONOS was 7% and 9% and 4% and 2% (2×).

Question: And the POLYS [4, 8]?
Answer: Its POLYS is 61% and 51% and 76% and 63% and 70%.

Question: What about the “WBC COUNT” value [4, 8] of the same molecule?
Answer: Its value is 8.9 1000/UL and 5.6 1000/UL and 6.9 1000/UL and 6.7 1000/UL and 6.1 1000/UL.

Question: What about the “increase in histone H3 acetylation at the CEBPE promoter” value (CEBPE promoter region [5]) of the same molecule?
Answer: Its value is 5 fold.

Question: And the “K. pneumoniae CFU recovered / outcome, NAM- vs PBS-treated blood” value (K. pneumoniae)?
Answer: Its value is “improved the outcome of infection; also recorded: Significantly less CFU”.

Question: And the “increase in histone acetylation at the CEBPE promoter” value (CEBPE promoter region [6])?
Answer: Its value is 3 fold.

Question: What about the “CFU recovered, NAM- vs PBS-treated blood” value (S. aureus [7]; C/EBPε−/− blood, 1 mM NAM 24 h, 1 h and 3 h of infection) of the same molecule?
Answer: Its value is “no impact; also recorded: not statistically different”.

Question: What about the “CFU recovered, NAM- vs PBS-treated blood” value (S. aureus [7]; WT blood, 1 mM NAM 24 h, 1 h and 3 h of infection) of the same molecule?
Answer: Its value is “Significantly less CFU”.

Question: And the “enhanced killing of S. aureus vs PBS” value (S. aureus [7]; WT blood, 1 mM NAM pretreatment 24 h)?
Answer: Its value is “more than 3 log10”.

Question: And the “CFU recovered, NAM- vs PBS-treated blood” value (S. aureus [7]; WT blood, 1 mM NAM pretreatment for only 4 h)?
Answer: Its value is “did not result in CFU differences”.
